Laboratory results taken from patent publication US11000509B2, “Methods and compositions for daily ophthalmic administration of phentolamine to improve visual performance” (Ocuphire Pharma, Inc., priority 2013, dated 2021).
Where a name gives a salt, the structure may show the parent alone. Marks after values point to notes of the source that are not given here.

Test system: eyes of patients with pupil size in dim light of greater than 7 mm
Assay: Example 2 clinical study: monocular low contrast visual acuity under photopic conditions (5% tint chart)
Type: in vivo, humans
Conditions: for mean low contrast acuity compared to baseline: paired t-test
Experimental: Sixteen patients were randomized into four groups (of four subjects each). Each group was treated on three successive study visits separated by at least 4 days with one drop of ophthalmic oxymetazoline solution (Visine LR®) in each eye followed by one drop test article in each eye. The test article was a 0.2% (w/v) phentolamine mesylate solution, 0.4% (w/v) phentolamine mesylate solution, 0.8% (w/v) phentolamine mesylate solution, or placebo. Test articles contained the designed amount of phentolamine mesylate in a solution of Tears Naturale II® (from Alcon Labs). Placebo was just Tears Naturale II® (from Alcon Labs). Tears Naturale II® (from Alcon Labs) contains Dextran 70 (0.1% by weight), Hydroxypropyl Methylcellulose 2910 (0.3% by weight), Polyquarternium-1 (0.001% by weight), potassium chloride, water (purified), sodium borate, sodium chloride, and hydrochloric acid and/or sodium hydroxide as necessary to adjust the pH. The patients' eye redness and pupil diameters were recorded at baseline (i.e., prior to treatment administration), and at 30 minutes, 1 hour, 2 hours, 4 hours, and 8 hours after administration of test articles. The incidence of any treatment-emergent adverse events was also recorded. Total study duration was approximately nine hours.
Eye redness of patients' eyes was evaluated by the research assistant and recorded as a single integer of value 0 (no redness) to 4 (extreme redness) at baseline and each time point after treatment. Pupil diameters were measured to within 0.1 mm for each eye at baseline and each subsequent time point using a NeurOptics™ pupilometer. Monocular high contrast visual acuity was measured for each eye under photopic conditions at baseline and each subsequent time point in a darkened room using a Precision Vision™ High Contrast (100% tint) Visual Acuity Chart (Catalog #2102) backlit by the Precision Vision Illumination Box. Monocular low contrast visual acuity was measured for each eye under photopic conditions at baseline and each subsequent time point in a darkened room using a Precision Vision™ Low Contrast (5% tint) Visual Acuity Chart (Catalog #2186) backlit by the Precision Vision Illumination Box. Effect of treatment on glare was assessed using an experimental test method consisting of a panel with a high wattage central light emitting diode (LED) and a set of 7 lower wattage red LEDs radiating horizontally and vertically from the central light.
Comparisons of changes in mean values within treatment groups were tested for significance using two-tailed paired two sample t-tests with a threshold for significance set at p<0.01 (Bonferroni Correction for multiple paired t-tests). Differences between treatment groups with respect to mean values for pupil size over the course of the study were tested for significance using repeated measure ANOVA (which discards data from subjects lacking any data points). Differences in mean eye redness between treatment groups were evaluated using Kruskal-Wallis nonparametric testing. Differences in means between treatment groups at individual time points were tested for significance using one-way ANOVA.

[1] = 0.2% (w/v) solution, 30 min after treatment
[2] = 0.2% (w/v) solution, 1 hour after treatment
[3] = 0.2% (w/v) solution, 2 hours after treatment
[4] = 0.2% (w/v) solution, 4 hours after treatment
[5] = 0.2% (w/v) solution, 8 hours after treatment
[6] = 0.2% (w/v) solution, Baseline, prior to treatment
[7] = 0.4% (w/v) solution, 30 min after treatment
[8] = 0.4% (w/v) solution, 1 hour after treatment
[9] = 0.4% (w/v) solution, 2 hours after treatment
[10] = 0.4% (w/v) solution, 4 hours after treatment
[11] = 0.4% (w/v) solution, 8 hours after treatment
[12] = 0.4% (w/v) solution, Baseline, prior to treatment
[13] = 0.8% (w/v) solution, 30 min after treatment
[14] = 0.8% (w/v) solution, 1 hour after treatment
[15] = 0.8% (w/v) solution, 2 hours after treatment
[16] = 0.8% (w/v) solution, 4 hours after treatment
[17] = 0.8% (w/v) solution, 8 hours after treatment
[18] = 0.8% (w/v) solution, Baseline, prior to treatment

Cc1ccc(N(CC2=NCCN2)c2cccc(O)c2)cc1 [Phentolamine Mesylate, phentolamine mesylate]
Maximum low contrast visual acuity [1]: −0.10 LogMar
Mean low contrast visual acuity [1]: −0.35 LogMar
Minimum low contrast visual acuity [1]: −0.78 LogMar
Maximum low contrast visual acuity [2]: −0.08 LogMar
Mean low contrast visual acuity [2]: −0.32 LogMar
Minimum low contrast visual acuity [2]: −0.80 LogMar
Maximum low contrast visual acuity [3]: −0.11 LogMar
Mean low contrast visual acuity [3]: −0.32 LogMar
Minimum low contrast visual acuity [3]: −0.74 LogMar
Maximum low contrast visual acuity [4]: 0.00 LogMar
Mean low contrast visual acuity [4]: −0.30 LogMar
Minimum low contrast visual acuity [4]: −0.76 LogMar
Maximum low contrast visual acuity [5]: −0.08 LogMar
Mean low contrast visual acuity [5]: −0.30^e LogMar
Minimum low contrast visual acuity [5]: −0.72 LogMar
Maximum low contrast visual acuity [6]: −0.06 LogMar
Mean low contrast visual acuity [6]: −0.34^d LogMar
Minimum low contrast visual acuity [6]: −0.80 LogMar
Maximum low contrast visual acuity [7]: 0.00 LogMar
Mean low contrast visual acuity [7]: −0.24 LogMar
Minimum low contrast visual acuity [7]: −0.70 LogMar
Maximum low contrast visual acuity [8]: −0.04 LogMar
Mean low contrast visual acuity [8]: −0.24 LogMar
Minimum low contrast visual acuity [8]: −0.78 LogMar
Maximum low contrast visual acuity [9]: 0.00 LogMar
Mean low contrast visual acuity [9]: −0.22 LogMar
Minimum low contrast visual acuity [9]: −0.64 LogMar
Maximum low contrast visual acuity [10]: 0.00 LogMar
Mean low contrast visual acuity [10]: −0.20 LogMar
Minimum low contrast visual acuity [10]: −0.70 LogMar
Maximum low contrast visual acuity [11]: 0.00 LogMar
Mean low contrast visual acuity [11]: −0.22 LogMar
Minimum low contrast visual acuity [11]: −0.64 LogMar
Maximum low contrast visual acuity [12]: −0.10 LogMar
Mean low contrast visual acuity [12]: −0.28 LogMar
Minimum low contrast visual acuity [12]: −0.74 LogMar
mean low contrast acuity compared to baseline (0.4% (w/v), 1, 2, 4, and 8 hours post treatment): significant increases
Maximum low contrast visual acuity [13]: −0.02 LogMar
Mean low contrast visual acuity [13]: −0.28 LogMar
Minimum low contrast visual acuity [13]: −0.76 LogMar
Maximum low contrast visual acuity [14]: 0.00 LogMar
Mean low contrast visual acuity [14]: −0.25 LogMar
Minimum low contrast visual acuity [14]: −0.62 LogMar
Maximum low contrast visual acuity [15]: 0.00 LogMar
Mean low contrast visual acuity [15]: −0.22 LogMar
Minimum low contrast visual acuity [15]: −0.60 LogMar
Maximum low contrast visual acuity [16]: 0.00 LogMar
Mean low contrast visual acuity [16]: −0.22 LogMar
Minimum low contrast visual acuity [16]: −0.70 LogMar
Maximum low contrast visual acuity [17]: 0.00 LogMar
Mean low contrast visual acuity [17]: −0.25 LogMar
Minimum low contrast visual acuity [17]: −0.78 LogMar
Maximum low contrast visual acuity [18]: −0.11 LogMar
Mean low contrast visual acuity [18]: −0.34 LogMar
Minimum low contrast visual acuity [18]: −0.78 LogMar
mean low contrast acuity compared to baseline (0.8% (w/v), all post-treatment time points): significant increases
maximal mean increase in low contrast visual acuity (0.8% (w/v), at 2 hours): 0.12 Log Mar
improvement in low contrast vision (0.8% (w/v), at 2 hours, equivalent of the maximal mean increase): ~6 letters on a Snellen chart
mean low contrast visual acuity, 0.2% (w/v) versus 0.4% and 0.8% (w/v) (ad hoc Fisher's test) (2 hours post-dosing, P<0.05): significant differences
